According to patent US10973834B2, “EP4 inhibitors and use thereof” (Arrys Therapeutics, Inc., priority 2018, dated 2021):

Assays:
[1] = test system: CT-26 mouse colon adenocarcinoma; test: Antitumor activity of Compound B alone and with anti-PD-1 in the CT-26 model; assay type: in vivo, BALB/c mice
Description: (§1) The antitumor activity of Compound B as a single agent and combined with a mouse anti-PD-1 antibody was evaluated in the CT-26 mouse colon adenocarcinoma model grown in BALB/c mice. Mice were inoculated subcutaneously in the right flank with 5×10^5 tumor cells. When tumors reached an average size of 71 mm^3 (6 days after tumor cell inoculation) dosing was initiated. The dosing regimens in the 8 separate cohorts comprising 10 mice each are as follows: […]

[2] = test system: CT-26 mouse colon adenocarcinoma; test: Antitumor activity of Compound B alone and with anti-PD1 in the CT-26 model, additional experiment; assay type: in vivo, BALB/c mice; conditions: CT-26 tumors; Compound B 15 mg/kg BID po; anti-PD1 10 mg/kg ip BIW; n=7/group; FIG. 5
Description: as §1, with “mouse anti-PD1” for “mouse anti-PD-1”, “BALB/c mice in an additional experiment.” for “BALB/c mice.”, “of 91” for “of 71”, “mm^3” for “mm^3 (6 days after tumor cell inoculation)”, “the 4” for “the 8”, “comprising 7” for “comprising 10”

4T1 mouse breast cancer [3] = test: Antitumor activity of Compound B alone and with anti-CTLA4 in the 4T1 model; assay type: in vivo, BALB/c mice; conditions: 4T1 tumors; Compound B 15 mg/kg BID; n=10/group; FIG. 3
Excerpt: Mice were inoculated subcutaneously in the right flank with 3×10^5 tumor cells. When tumors reached an average size of 100 mm^3 (7 days after tumor cell inoculation) dosing was initiated.

4T1 mouse breast cancer [4] = test: Antitumor activity of Compound B alone and with anti-PD1 in the 4T1 model, additional experiment; assay type: in vivo, BALB/c mice; conditions: 4T1 tumors; Compound B 15 mg/kg BID po; anti-PD1 10 mg/kg ip BIW; n=7/group; FIG. 6
Description: The antitumor activity of Compound B as a single agent and combined with a mouse anti-PD1 antibody was evaluated in the 4T1 mouse breast cancer model grown in BALB/c mice in an additional experiment. Mice were inoculated subcutaneously in the right flank with 3×10^5 tumor cells. When tumors reached an average size of 97 mm^3 dosing was initiated. The dosing regimens in the 4 separate cohorts comprising 7 mice each are as follows: […]

CT-26 tumors = test: Immune cell composition of CT-26 tumors by flow cytometry; assay type: in vivo, BALB/c mice; conditions: after 7 days of dosing, Compound B 15 mg/kg BID, anti-PD1 10 mg/kg Q3D
Description: The immune cell composition of Compound B as a single agent and combined with a mouse anti-PD1 antibody was evaluated in the CT-26 mouse colon adenocarcinoma model grown in BALB/c mice. Mice were inoculated subcutaneously in the right flank with 5×10^5 tumor cells. When tumors reached an average size of 85 mm^3 dosing was initiated. The dosing regimens in the 4 separate cohorts comprising 10 mice each are listed as follows:
After dosing animals for 7 days, tumors were resected and used to prepare single cell suspensions. Live cells representing tumor and immune cells were stained with cocktails of antibodies targeting multiple immune cell markers (anti-CD45, anti-CD3, anti-CD4, anti-CD8, anti-CD25, anti-FoxP3, anti-PD-1, anti-CD11c) conjugated to different fluorescent tags. The stained cells were fixed in 4% paraformaldehyde and quantified using a multi-color flow cytometer (Fortessa). The data was analyzed with FloJo software.

CT26 tumor cells = test: CT26 re-inoculation of complete responders versus tumor-naive mice; assay type: in vivo; conditions: complete responders compared with 6 tumor-naive mice
Excerpt: CT26 tumor cells were inoculated into 6 tumor-naive mice or complete responders of CT26 tumor-bearing mice previously treated with Compound B and anti-PD-1 alone or in combination.

[5] = 99 days after tumor inoculation

With `C[C@H](NC(=O)c1cc(Cl)cnc1Oc1cccc(F)c1)c1ccc(C(=O)O)cc1` [Compound B] the mice still alive [1, 5] was 1 out of 10, the mice tumor free [1, 5] was 1 out of 10 and the “tumor growth kinetics during the period of dosing” value ([1]; CT-26 tumors, Compound B 15 mg/kg QD and BID p.o., anti-PD-1 10 mg/kg i.p., n=10/group, FIG. 1) was “not notably different from the vehicle treated mice”. For the same compound, the “tumor growth kinetics during the period of dosing” value [2] was “less than that of the vehicle group”, the “tumor growth kinetics during the period of dosing” value (4T1 mouse breast cancer [3]) was “decreased relative to the vehicle treated mice” and the “tumor growth kinetics during the period of dosing” value (4T1 mouse breast cancer [4]) was “less than that of the vehicle group and anti-PD1 when dosed alone”. For the same compound, the “percentage of dendritic cells (CD45, CD11c positive)” value (CT-26 tumors; FIG. 7b) was “increased percentage”, the “regulatory T cells (CD45, CD4, FoxP3, CD25 positive)” value (CT-26 tumors; versus vehicle, FIG. 7a) was “significant decrease” and the “growth of re-inoculated CT26 in complete responders” value (CT26 tumor cells) was “decreased the growth of CT26 relative to naive mice”.
